Laboratory results taken from US8232248B2, “Treatment of rheumatoid arthritis with mammal beta defensins” (Novozymes Adenium Biotech A/S, priority 2008, dated 2012).

Columns and labels:
[1] = test system: TNF production from human peripheral blood mononuclear cells (PBMC); experiment: TNF production from PBMC stimulated with LPS, LTA, PGN or Pam3CSK4, 24 h, Cytometric Bead Array; format: cell-based; conditions: Table 18; for TNF: Medium, non-treated 1
Method: (§1) Peripheral blood was drawn from healthy volunteers (with approval from the relevant ethical committee in Denmark). Heparinized blood was diluted 1/1 v/v with RPMI and were subjected to Ficoll density centrifugation within 2 h of drawing. Plasma was collected from the top from individual donors and was kept on ice until it was used at 2% in the culture medium (autologous culture medium). Isolated PBMC were resuspended in autologous culture medium and seeded in 96-well culture plates with 255.000 cells per well in a total of 200 μl. […] The concentrations used for stimulation were optimized on 3 different donors in initial experiments, for LPS two different concentrations were used to be sure to be on a cytokine level that is possible to modulate. In some experiments PBMC were treated with Dexamethason and Indomethacin alone and together with LPS or LTA as a control on downregulation of inflammatory cytokines. The supernatants were collected after incubation at 37° C. for 24 hours, and stored at −80° C. until cytokine measurement. Viability was measured by Alamar Blue (Biosource, DALL 1100) in all experiments and in some cases also by MTS (Promega) according to manufacturer's instruction and was in some experiments also judged by counting of the cells by a Nucleocounter.
(§2) Cytokine production in supernatants was measured by flow cytometry with a human inflammation cytometric bead array (CBA) according to manufacturer's instructions (BD) on a FACSarray flow cytometer. The following cytokines were measured: IL-8, IL-1β, IL-10, TNF, IL-12 p70, IL-6. In some experiments, cytokines were measured by ELISA kits from R&D systems (IL-10, TNF-α, IL-1β) according to the manufacturer' instruction.
(§3) All experiments were performed at least twice, with representative results shown. The data presented are expressed as mean plus/minus standard deviation (SD). […] Differences were considered significant for p<0.05.
Example 3 was carried out essentially as described in Example 2. […]

[2] = test system: IL-1β production from human peripheral blood mononuclear cells (PBMC); experiment: IL-1β production from PBMC stimulated with LPS or LTA, 24 h, Cytometric Bead Array; format: cell-based; conditions: Table 20
Method: as §1, §2, §3

[3] = test system: IL-10 production from human peripheral blood mononuclear cells (PBMC); experiment: IL-10 production from PBMC stimulated with LPS, LTA or PGN, 24 h, Cytometric Bead Array; format: cell-based; conditions: Table 19
Method: as §1, §2, §3

[4] = test system: PBMC; experiment: PBMC viability, Alamar Blue; format: cell-based, human; conditions: 40 μg/ml
Method: as §1

[5] = test compound 1 μg/ml, LPS 0.6 ng/ml
[6] = test compound 1 μg/ml, LPS 20 ng/ml
[7] = test compound 10 μg/ml, LPS 0.6 ng/ml
[8] = test compound 10 μg/ml, LPS 20 ng/ml
[9] = test compound 1 μg/ml, Medium, non-treated 0
[10] = test compound 10 μg/ml, Medium, non-treated 0

What does the source list for “hBD4 variant: consists of amino acids 3-39 of hBD4, SEQ ID NO:5 (ELDRICGYGTARCRKKCRSQEYRIGRCPNTYACCLRK; hBD-4 variant consisting of amino acids 3-39 of SEQ ID NO4)”?
TNF % of control [1, 5]: 64%; TNF % of control [1, 6]: 36%; TNF ([1]; test compound 1 μg/ml): 0 pg/mL; TNF % of control [1, 7]: 29%; TNF % of control [1, 8]: 6%; TNF ([1]; test compound 10 μg/ml): 0 pg/mL; IL-1β % of control [2, 5]: 39%; IL-1β ([2]; test compound 1 μg/ml, LPS 0.6 ng/ml, non-treated 741): 286 pg/mL; IL-1β % of control [2, 6]: 40%; IL-1β ([2]; test compound 1 μg/ml, LPS 20 ng/ml, non-treated 2544): 1004 pg/mL; IL-1β [2, 9]: 0 pg/mL; IL-1β % of control [2, 7]: 22%; IL-1β ([2]; test compound 10 μg/ml, LPS 0.6 ng/ml, non-treated 741): 163 pg/mL; IL-1β % of control [2, 8]: 18%; IL-1β ([2]; test compound 10 μg/ml, LPS 20 ng/ml, non-treated 2544): 463 pg/mL; IL-1β [2, 10]: 0 pg/mL; Secretion of IL-10 ([3]; PBMC with LPS): significantly and dose-dependently enhanced; IL-10 ([3]; test compound 1 μg/ml, LPS 0.6 ng/ml, non-treated 66): 90 pg/mL; IL-10 [3, 9]: 0 pg/mL; IL-10 ([3]; test compound 10 μg/ml, LPS 0.6 ng/ml, non-treated 66): 92 pg/mL; IL-10 [3, 10]: 0 pg/mL; Toxicity to the cells [4]: toxic to the cells
